Test results taken from patent US20240010681A1, “PEPTIDES AND METHODS OF USE” (REALTA LIFE SCIENCES, INC., priority 2020, published 2024).

Test: Pharmacokinetics, metabolite profiles and excretion of [14C]-PIC1-dPEG24 after single IV dose
Assay type: in vivo, rat
Protocol: […]. The six rats in Group 3 and Group 4 were further divided into two subgroups for serial blood collections at 10, 30 min and 1, 2, 3, 4, 6, 8, 24, and 48 hr. Blood was pooled by equal volume across animals at each time point, and aliquots (˜200 μL) of pooled blood were removed at each time point for total radioactivity, and the rest of blood samples were centrifuged to obtain plasma. Bile, urine, feces, and cage wash samples were collected up to 72 hr in bile duct cannulated (BDC) rats, and up to 168 hr in intact rats, and terminal blood samples were collected at the end of study (72 hr or 168 hr post-doses). The total radioactivity concentrations in the excreta, blood and plasma were determined by homogenization, combustion and/or liquid scintillation counting (LSC). The metabolite profiles and structure characterization were conducted in pooled plasma, urine, and bile samples using LC-UV/MS as well as radioactive detection. […].
The radioactive profiles of rat plasma samples for the low dose group and the high dose group were qualitatively similar.

CC[C@H](C)[C@H](N)C(=O)N[C@@H](C)C(=O)N[C@@H](CC(C)C)C(=O)N[C@H](C(=O)N[C@@H](CC(C)C)C(=O)N[C@@H](CCC(=O)O)C(=O)N1CCC[C@H]1C(=O)N[C@H](C(=O)N[C@@H](CS)C(=O)N[C@@H](CS)C(=O)N[C@@H](CCC(N)=O)C(=O)N[C@@H](CCC(=O)O)C(=O)N[C@@H](CCCNC(=N)N)C(=O)N[C@@H](C)C(=O)N[C@@H](C)C(=O)NCCOCCOCCOCCOCCOCCOCCOCCOCCOCCOCCOCCOCCOCCOCCOCCOCCOCCOCCOCCOCCOCCOCCOCCOCCC(=O)O)[C@@H](C)CC)[C@@H](C)CC [[^14C]-PIC1-dPEG24]
unchanged parent compound in urine (20 and 200 mg/kg dose): not detectable | unchanged parent compound and M2768 together in pooled plasma (8 hr time point, small radioactive peak at 30 min post-IV-injection): still detectable | route of elimination of related radioactivity (male BDC and intact rats, single IV 20 and 200 mg/kg): urinary excretion was major route of elimination | half-life (rat, in vivo, intact rats, IV 20 and 200 mg/kg, read-out: plasma elimination half-lives for total radioactivity): ≥ 40 h | dosed radioactivity recovered within 24 hr post-dose (single IV 20 or 200 mg/kg, mainly via urine): > 70 % of the dose
